The values below come from ChEMBL document CHEMBL5331129, “Discovery of NAFLD-Improving Agents by Promoting the Degradation of Keap1” (J Med Chem, 2023).

The structures appear in SMILES notation. Calls of active or inactive are those of the source. No cut-off for these calls is given here.

Series [1] has as its target Protein cereblon/Kelch-like ECH-associated protein 1 (Mus musculus) (UniProt Q9Z2X8+Q8C7D2). Put plainly: PROTAC activity at CRBN/Keap1 in mouse AML12 cells assessed as degradation of Keap1 protein at 1 uM incubated for 24 hrs by Western blotting analysis. The class given is cell-based. A general note: A western blot detects proteins with antibodies after separation by electrophoresis.

Series [2] deals with AML12. Kind of series: Antioxidant activity against free fatty acid induced oxidative stress in mouse AML12 cells assessed as increase in GSH level. The class given is functional, cell-based.
For series [3], the system named is AML12. Put plainly: Antioxidant activity against free fatty acid induced oxidative stress in mouse AML12 cells assessed as upregulation of Nrf2 protein expression level incubated for 24 hrs by immunoblot analysis. The class given is functional, cell-based.
Series [4] concerns AML12. Put plainly: Antioxidant activity against free fatty acid induced oxidative stress in mouse AML12 cells assessed as upregulation of HO-1 protein expression level incubated for 24 hrs by immunoblot analysis. The class given is functional, cell-based.
Series [5] deals with Mus musculus. Put plainly: Antioxidant activity against MCD diet-induced oxidative stress in C57Bl/6 mouse model of NAFLD assessed as downregulation of liver Keap1 protein expression level at 1 mg/kg,ip administrated for 4 weeks by immunofluorescence staining analysis. Type of series: functional, organism-based.
For series [6], the system named is Mus musculus. Put plainly: Antioxidant activity against MCD diet-induced oxidative stress in C57Bl/6 mouse model of NAFLD assessed as upregulation of liver Nrf2 protein expression level at 1 mg/kg,ip administrated for 4 weeks by immunoblot analysis. Type of series: functional, organism-based.
Series [7] has as its system Mus musculus. Kind of series: Antioxidant activity against MCD diet-induced oxidative stress in C57Bl/6 mouse model of NAFLD assessed as downregulation of liver Keap1 protein expression level at 1 mg/kg,ip administrated for 4 weeks by immunoblot analysis. The class given is functional, organism-based.
Series [8] relates to Mus musculus. Kind of series: Antioxidant activity against MCD diet-induced oxidative stress in C57Bl/6 mouse model of NAFLD assessed as downregulation of liver Keap1 protein expression level at 1 mg/kg,ip administrated for 4 weeks by immunohistochemical staining assay. Type of series: functional, organism-based.
Series [9] can be described thus: Acute toxicity in zebrafish at < 2.5 uM observed at 120 hrs post fertilization. The arrangement: species or system Danio rerio. Particulars: in vivo.
The subject of series [10] is Mus musculus. Kind of series: Antioxidant activity against MCD diet-induced oxidative stress in C57Bl/6 mouse model of NAFLD assessed as upregulation of liver NQO1 protein expression level at 1 mg/kg,ip administrated for 4 weeks by immunohistochemical staining assay. The class given is functional, organism-based.
The test system of series [11] is AML12. Put plainly: Antioxidant activity against free fatty acid induced oxidative stress in mouse AML12 cells assessed as increase in SOD level. Type of series: functional, cell-based.
Series [12] in a line: Acute toxicity in C57BL/6 mouse assessed as histopathological change in liver at 20 mg/kg,ip qd administrated for 3 consecutive days and measured on day 4 by hematoxylin and eosin staining based assay. Type of series: organism-based. Particulars: in vivo.
The nature of series [13]: Acute toxicity in zebrafish assessed as death at 5 uM observed at 120 hrs post fertilization. The arrangement: species or system Danio rerio. Particulars: in vivo.
Series [14] is described as follows: Acute toxicity in C57BL/6 mouse assessed as histopathological change in spleen at 20 mg/kg,ip qd administrated for 3 consecutive days and measured on day 4 by hematoxylin and eosin staining based assay. Type of series: organism-based. Particulars: in vivo.
The nature of series [15]: Acute toxicity in C57BL/6 mouse assessed as histopathological change in heart at 20 mg/kg,ip qd administrated for 3 consecutive days and measured on day 4 by hematoxylin and eosin staining based assay. Type of series: organism-based. Particulars: in vivo.
Series [16] has as its system Mus musculus. Put plainly: Antioxidant activity against MCD diet-induced oxidative stress in C57Bl/6 mouse model of NAFLD assessed as decrease in histopathological change in liver at 1 mg/kg,ip administrated for 4 weeks by hematoxylin and eosin staining based assay. Type of series: functional, organism-based.
Series [17] has as its system Mus musculus. Kind of series: Antioxidant activity against MCD diet-induced oxidative stress in C57Bl/6 mouse model of NAFLD assessed as upregulation of liver Nrf2 protein expression level at 1 mg/kg,ip administrated for 4 weeks by immunofluorescence staining analysis. Type of series: functional, organism-based.
The subject of series [18] is Mus musculus. Put plainly: Antioxidant activity against MCD diet-induced oxidative stress in C57Bl/6 mouse model of NAFLD assessed as increase in SOD level in liver at 1 mg/kg,ip administrated for 4 weeks. Type of series: functional, organism-based.
The test system of series [19] is AML12. Kind of series: Antioxidant activity against free fatty acid induced oxidative stress in mouse AML12 cells assessed as decrease in ROS level incubated for 24 hrs. Type of series: functional, cell-based.
Series [20] deals with Mus musculus. Put plainly: Antioxidant activity against MCD diet-induced oxidative stress in C57Bl/6 mouse model of NAFLD assessed as upregulation of liver HO-1 protein expression level at 1 mg/kg,ip administrated for 4 weeks by immunohistochemical staining assay. Type of series: functional, organism-based.
For series [21], the system named is Mus musculus. Put plainly: Antioxidant activity against MCD diet-induced oxidative stress in C57Bl/6 mouse model of NAFLD assessed as decrease in liver ROS level at 1 mg/kg,ip administrated for 4 weeks by immunostaining analysis. Type of series: functional, organism-based.
Series [22] is described as follows: Acute toxicity in C57BL/6 mouse assessed as visceral damage at 20 mg/kg,ip qd administrated for 3 consecutive days and measured on day 4 by hematoxylin and eosin staining based assay. Type of series: organism-based. Particulars: in vivo.
Series [23] is described as follows: Acute toxicity in C57BL/6 mouse assessed as visceral cellular damage at 20 mg/kg,ip qd administrated for 3 consecutive days and measured on day 4 by hematoxylin and eosin staining based assay. The class given is organism-based. Particulars: in vivo.
Series [24] relates to Mus musculus. Kind of series: Antioxidant activity against MCD diet-induced oxidative stress in C57Bl/6 mouse model of NAFLD assessed as reduction of serum TG level at 1 mg/kg,ip administrated for 4 weeks. Type of series: functional, organism-based.
Series [25] can be described thus: Acute toxicity in C57BL/6 mouse assessed as visceral inflammatory cell infiltration at 20 mg/kg,ip qd administrated for 3 consecutive days and measured on day 4 by hematoxylin and eosin staining based assay. The class given is organism-based. Particulars: in vivo.
The test system of series [26] is AML12. Put plainly: Antioxidant activity against free fatty acid induced oxidative stress in mouse AML12 cells assessed as downregulation of Keap1 protein expression level incubated for 24 hrs by immunoblot analysis. The class given is functional, cell-based.
Series [27] has as its target Kelch-like ECH-associated protein 1 (Homo sapiens, UniProt Q14145). Put plainly: Binding affinity to Keap1 (unknown origin) assessed as dissociation constant incubated for 200 sec by sensor chip immobilization based surface plasmon resonance analysis. For orientation: In SPR one partner is held on a chip, and binding of the other changes the refractive index at the surface.

Series [28] in a line: Acute toxicity in zebrafish assessed as pericardial edema at 5 uM observed at 120 hrs post fertilization. The arrangement: species or system Danio rerio. Particulars: in vivo.
Series [29] is described as follows: Acute toxicity in zebrafish assessed as death at 10 uM observed at 72 hrs post fertilization. Particulars: in vivo. Details: species or system Danio rerio.
The test system of series [30] is AML12. Put plainly: Antioxidant activity against free fatty acid induced oxidative stress in mouse AML12 cells assessed as upregulation of NQO1 protein expression level incubated for 24 hrs by immunoblot analysis. The class given is functional, cell-based.
The test system of series [31] is Mus musculus. Put plainly: Antioxidant activity against MCD diet-induced oxidative stress in C57Bl/6 mouse model of NAFLD assessed as increase in GSH level in liver at 1 mg/kg,ip administrated for 4 weeks. The class given is functional, organism-based.
A short description of series [32]: Acute toxicity in C57BL/6 mouse assessed as histopathological change in lung at 20 mg/kg,ip qd administrated for 3 consecutive days and measured on day 4 by hematoxylin and eosin staining based assay. The class given is organism-based. Particulars: in vivo.
Series [33] deals with Mus musculus. Kind of series: Antioxidant activity against MCD diet-induced oxidative stress in C57Bl/6 mouse model of NAFLD assessed as increase in CAT level in liver at 1 mg/kg,ip administrated for 4 weeks. The class given is functional, organism-based.

Sequence of Protein cereblon/Kelch-like ECH-associated protein 1 (Mus musculus) (Q8C7D2 whole entry, looked up): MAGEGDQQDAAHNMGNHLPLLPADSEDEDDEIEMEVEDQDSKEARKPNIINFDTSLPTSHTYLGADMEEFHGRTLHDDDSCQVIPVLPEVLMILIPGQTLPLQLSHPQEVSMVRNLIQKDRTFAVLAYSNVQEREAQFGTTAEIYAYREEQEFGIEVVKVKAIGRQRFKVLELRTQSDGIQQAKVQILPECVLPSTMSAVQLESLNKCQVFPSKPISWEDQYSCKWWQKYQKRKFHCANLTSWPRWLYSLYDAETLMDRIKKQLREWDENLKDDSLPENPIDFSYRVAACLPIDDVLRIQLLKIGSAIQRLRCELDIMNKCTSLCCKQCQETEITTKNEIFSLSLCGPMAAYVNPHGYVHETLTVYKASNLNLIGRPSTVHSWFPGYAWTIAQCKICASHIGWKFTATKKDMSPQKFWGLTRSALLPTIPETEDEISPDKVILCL
Sequence of Protein cereblon/Kelch-like ECH-associated protein 1 (Mus musculus) (Q9Z2X8 whole entry, looked up): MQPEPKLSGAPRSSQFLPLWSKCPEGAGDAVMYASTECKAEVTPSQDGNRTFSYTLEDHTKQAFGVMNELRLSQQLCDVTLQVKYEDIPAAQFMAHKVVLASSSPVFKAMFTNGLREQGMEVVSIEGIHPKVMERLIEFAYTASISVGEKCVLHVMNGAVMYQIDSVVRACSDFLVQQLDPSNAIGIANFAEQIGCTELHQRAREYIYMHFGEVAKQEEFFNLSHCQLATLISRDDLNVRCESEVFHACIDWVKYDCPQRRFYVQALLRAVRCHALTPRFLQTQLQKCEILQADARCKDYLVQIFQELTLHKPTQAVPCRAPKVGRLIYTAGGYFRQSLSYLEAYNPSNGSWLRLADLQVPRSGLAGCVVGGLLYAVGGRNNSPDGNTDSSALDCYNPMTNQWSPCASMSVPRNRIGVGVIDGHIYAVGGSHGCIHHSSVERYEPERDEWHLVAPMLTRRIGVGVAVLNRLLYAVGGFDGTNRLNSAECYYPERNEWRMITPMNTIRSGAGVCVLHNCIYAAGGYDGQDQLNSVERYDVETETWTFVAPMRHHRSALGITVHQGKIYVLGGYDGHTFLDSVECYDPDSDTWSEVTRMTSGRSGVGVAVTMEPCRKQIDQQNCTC
Sequence of Kelch-like ECH-associated protein 1 (Q14145 whole entry): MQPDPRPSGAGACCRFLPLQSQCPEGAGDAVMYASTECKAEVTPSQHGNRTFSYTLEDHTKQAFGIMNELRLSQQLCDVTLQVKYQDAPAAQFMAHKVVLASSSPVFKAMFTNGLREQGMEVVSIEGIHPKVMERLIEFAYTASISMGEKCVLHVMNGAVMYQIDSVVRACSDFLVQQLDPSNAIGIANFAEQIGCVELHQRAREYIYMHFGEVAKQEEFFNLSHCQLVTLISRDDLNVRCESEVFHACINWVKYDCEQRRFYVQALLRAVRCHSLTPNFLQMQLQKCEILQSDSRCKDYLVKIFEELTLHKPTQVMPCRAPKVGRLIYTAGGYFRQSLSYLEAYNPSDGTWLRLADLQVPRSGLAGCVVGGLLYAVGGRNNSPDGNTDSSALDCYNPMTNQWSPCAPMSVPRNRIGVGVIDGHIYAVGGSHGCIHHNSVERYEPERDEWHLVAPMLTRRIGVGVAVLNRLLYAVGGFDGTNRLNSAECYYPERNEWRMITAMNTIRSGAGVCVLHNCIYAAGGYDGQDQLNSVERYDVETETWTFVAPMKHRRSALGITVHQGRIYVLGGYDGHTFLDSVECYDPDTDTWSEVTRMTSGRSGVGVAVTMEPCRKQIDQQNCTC

For the compound `Nc1cccc2c1C(=O)N(C1CCC(=O)NC1=O)C2=O` (stereo not given), the result in series [1] was inactive.
For the compound `CC1(C)CC[C@]2(C(=O)O)CC[C@]3(C)[C@H](C(=O)C=C4[C@@]5(C)C=C(C#N)C(=O)C(C)(C)[C@@H]5CC[C@]43C)[C@@H]2C1` [BARDOXOLONE], the outcome (with AML12 [2]; in [1]; in the series with AML12 [3]; in the series on AML12 [4]; with Mus musculus [5]; in the series with Mus musculus [6]) was inactive. For the same compound, the result in the series on Mus musculus [7], in the series with Mus musculus [8], in the series on Mus musculus [10], with Mus musculus [17], in the series with Mus musculus [20] and with AML12 [26] was inactive. For the same compound, the outcome in the series on AML12 [30] was inactive. In addition, the Activity result in series [9] is “Non-Toxic”; in [12] it was “Toxic”; in [13], “Toxic”; in series [14], “Toxic”; in series [15], “Toxic”; in [22], “Non-Toxic”. Also, the Activity entry in [23], in [25], in [28], in series [29] and in series [32] was “Toxic” throughout. Further, the outcome with AML12 [11], with Mus musculus [16], in the series with Mus musculus [18], in the series with AML12 [19], in the series on Mus musculus [21] and with Mus musculus [24] was Active. Besides, the outcome in the series on Mus musculus [31] and in the series on Mus musculus [33] was Active. Further, in [27], the Kd (usually the free concentration of one partner at which half of the binding sites on the other are occupied at equilibrium, for simple one-to-one binding) came to 48.7 µM.
For `CN1C(=O)CCC(N2C(=O)c3cccc(NCCCCCNC(=O)[C@]45CCC(C)(C)C[C@H]4[C@H]4C(=O)C=C6C7(C)C=C(C#N)C(=O)C(C)(C)[C@@H]7CC[C@@]6(C)[C@]4(C)CC5)c3C2=O)C1=O` (single isomer, unassigned), in [1], the result was inactive.
